Consider 6 compounds from ChEMBL document CHEMBL5465560, “Selectivity Literature for EUbOPEN Chemogenomic Library” (2024).

The target of assay [1] is RAF proto-oncogene serine/threonine-protein kinase (Homo sapiens) (UniProt P04049). The experiment in a line: Selectivity interaction (KinomeScan (DiscoverX)) EUB0001619a RAF1. To be noted: at 1 µM.
Assay [2] has as its target Calcium/calmodulin-dependent protein kinase type II subunit beta (Homo sapiens) (UniProt Q13554). The experiment in a line: Selectivity interaction (KinomeScan (DiscoverX)) EUB0000666a CAMK2B. To be noted: at 10 µM.
For assay [3], the target named is T1, Cyclin-dependent kinase 11A (Homo sapiens) (UniProt Q9UQ88).
T1 sequence (whole entry): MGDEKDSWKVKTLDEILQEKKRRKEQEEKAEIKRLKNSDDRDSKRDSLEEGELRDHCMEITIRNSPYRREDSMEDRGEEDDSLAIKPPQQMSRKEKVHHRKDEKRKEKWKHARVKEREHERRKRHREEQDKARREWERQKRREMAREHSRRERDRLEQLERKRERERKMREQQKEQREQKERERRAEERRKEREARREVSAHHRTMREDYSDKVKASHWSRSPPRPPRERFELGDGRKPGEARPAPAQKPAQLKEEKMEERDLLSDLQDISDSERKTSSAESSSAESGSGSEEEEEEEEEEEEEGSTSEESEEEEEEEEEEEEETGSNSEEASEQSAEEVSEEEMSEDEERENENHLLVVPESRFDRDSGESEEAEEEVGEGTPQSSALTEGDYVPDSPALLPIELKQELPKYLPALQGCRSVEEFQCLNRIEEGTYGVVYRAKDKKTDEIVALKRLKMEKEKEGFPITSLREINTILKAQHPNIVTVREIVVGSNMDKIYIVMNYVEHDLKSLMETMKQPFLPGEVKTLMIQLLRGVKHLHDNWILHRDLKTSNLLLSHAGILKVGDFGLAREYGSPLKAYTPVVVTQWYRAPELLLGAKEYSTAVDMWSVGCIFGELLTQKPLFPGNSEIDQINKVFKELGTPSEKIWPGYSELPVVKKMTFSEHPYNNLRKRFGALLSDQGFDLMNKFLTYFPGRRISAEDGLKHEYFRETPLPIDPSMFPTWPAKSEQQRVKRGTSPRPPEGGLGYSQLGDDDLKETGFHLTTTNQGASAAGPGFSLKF
The experiment in a line: Selectivity interaction (ActivX KiNativ screen (kinase selectivity in THP-1 cell lysates)) EUB0000639a CDK11A. Type of assay: subcellular. To be noted: lysate, at 1 µM.

The target of assay [4] is T2, cGMP-dependent protein kinase 2 (Homo sapiens) (UniProt Q13237).
T2 sequence (whole entry): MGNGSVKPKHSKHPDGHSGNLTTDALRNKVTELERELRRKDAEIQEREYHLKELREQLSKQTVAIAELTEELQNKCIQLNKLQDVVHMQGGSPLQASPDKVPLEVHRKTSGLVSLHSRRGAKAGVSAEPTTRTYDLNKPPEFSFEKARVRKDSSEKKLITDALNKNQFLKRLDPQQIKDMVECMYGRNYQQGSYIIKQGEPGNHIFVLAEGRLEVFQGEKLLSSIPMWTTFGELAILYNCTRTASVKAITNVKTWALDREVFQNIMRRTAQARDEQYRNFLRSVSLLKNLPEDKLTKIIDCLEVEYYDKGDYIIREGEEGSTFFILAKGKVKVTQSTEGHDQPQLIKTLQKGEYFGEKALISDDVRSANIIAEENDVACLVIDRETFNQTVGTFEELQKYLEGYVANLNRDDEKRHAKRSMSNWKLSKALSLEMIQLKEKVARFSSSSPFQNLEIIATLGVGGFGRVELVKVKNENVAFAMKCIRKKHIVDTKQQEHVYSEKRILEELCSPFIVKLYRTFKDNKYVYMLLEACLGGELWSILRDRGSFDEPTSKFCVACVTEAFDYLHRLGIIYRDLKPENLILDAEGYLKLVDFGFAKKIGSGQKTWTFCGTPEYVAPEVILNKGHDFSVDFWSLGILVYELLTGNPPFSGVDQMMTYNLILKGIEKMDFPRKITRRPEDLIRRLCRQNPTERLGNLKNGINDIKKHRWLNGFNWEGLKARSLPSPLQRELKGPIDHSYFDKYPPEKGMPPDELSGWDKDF
The experiment in a line: Selectivity interaction (Ambit KINOMEscan and KiNATiv profiling in Jurkat cells) EUB0000090b PRKG2. The assay is classed as cell-based. To be noted: at 1 µM.

The target in assay [5] is Serine/threonine-protein kinase N2 (Homo sapiens, UniProt Q16513). The experiment in a line: Selectivity interaction (KinomeScan (DiscoverX)) EUB0000618a PKN2. To be noted: at 10 µM.
Assay [6] has as its target T3, Serine/threonine-protein kinase PLK4 (Homo sapiens) (UniProt O00444).
T3 sequence (whole entry): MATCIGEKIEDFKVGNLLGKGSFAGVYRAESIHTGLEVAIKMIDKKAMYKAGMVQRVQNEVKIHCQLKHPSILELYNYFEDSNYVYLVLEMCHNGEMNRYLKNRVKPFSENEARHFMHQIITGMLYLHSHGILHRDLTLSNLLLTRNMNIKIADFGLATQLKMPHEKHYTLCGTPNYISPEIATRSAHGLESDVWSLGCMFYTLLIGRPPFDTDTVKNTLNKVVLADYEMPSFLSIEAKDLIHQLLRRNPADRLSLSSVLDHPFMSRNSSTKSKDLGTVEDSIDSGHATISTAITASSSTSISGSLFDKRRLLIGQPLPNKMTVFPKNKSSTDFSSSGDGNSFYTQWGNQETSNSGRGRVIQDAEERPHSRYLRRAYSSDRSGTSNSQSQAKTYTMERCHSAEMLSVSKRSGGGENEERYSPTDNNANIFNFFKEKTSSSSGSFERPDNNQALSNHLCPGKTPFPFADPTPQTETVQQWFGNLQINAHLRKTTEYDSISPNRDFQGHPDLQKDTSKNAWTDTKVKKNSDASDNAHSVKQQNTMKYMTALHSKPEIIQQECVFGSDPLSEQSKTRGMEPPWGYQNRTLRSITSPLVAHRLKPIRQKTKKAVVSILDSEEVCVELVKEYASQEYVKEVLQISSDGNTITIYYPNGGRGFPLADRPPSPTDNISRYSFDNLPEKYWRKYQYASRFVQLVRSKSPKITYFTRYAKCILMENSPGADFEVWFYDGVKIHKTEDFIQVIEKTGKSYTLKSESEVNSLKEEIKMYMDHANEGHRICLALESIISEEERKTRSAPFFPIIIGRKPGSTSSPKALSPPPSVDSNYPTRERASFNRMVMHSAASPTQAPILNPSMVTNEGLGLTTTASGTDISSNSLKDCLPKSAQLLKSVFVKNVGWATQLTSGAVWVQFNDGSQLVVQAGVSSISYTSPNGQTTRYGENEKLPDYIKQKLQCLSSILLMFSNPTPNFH
The experiment in a line: Selectivity interaction (Kinase panel (DSF assay)) EUB0001558a PLK4.

Chain of RAF proto-oncogene serine/threonine-protein kinase (Homo sapiens) (P04049 whole entry): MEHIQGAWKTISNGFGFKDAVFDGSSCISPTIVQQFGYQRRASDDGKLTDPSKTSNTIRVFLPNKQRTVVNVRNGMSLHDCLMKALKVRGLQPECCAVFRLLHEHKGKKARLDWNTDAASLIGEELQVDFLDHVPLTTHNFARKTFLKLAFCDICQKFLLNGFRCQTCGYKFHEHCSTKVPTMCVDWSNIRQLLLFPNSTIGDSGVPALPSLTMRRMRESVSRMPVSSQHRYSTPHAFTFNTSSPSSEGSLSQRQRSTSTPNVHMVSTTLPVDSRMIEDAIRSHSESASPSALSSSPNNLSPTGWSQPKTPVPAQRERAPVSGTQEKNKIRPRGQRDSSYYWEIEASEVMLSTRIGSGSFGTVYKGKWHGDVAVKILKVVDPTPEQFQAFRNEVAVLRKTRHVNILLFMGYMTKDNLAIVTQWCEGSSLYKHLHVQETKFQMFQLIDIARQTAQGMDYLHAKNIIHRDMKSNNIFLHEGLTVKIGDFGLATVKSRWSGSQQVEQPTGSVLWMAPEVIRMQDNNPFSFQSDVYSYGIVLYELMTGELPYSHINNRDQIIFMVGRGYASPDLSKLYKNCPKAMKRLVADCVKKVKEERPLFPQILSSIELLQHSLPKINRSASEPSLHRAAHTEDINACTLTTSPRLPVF
Chain of Calcium/calmodulin-dependent protein kinase type II subunit beta (Homo sapiens) (Q13554 whole entry): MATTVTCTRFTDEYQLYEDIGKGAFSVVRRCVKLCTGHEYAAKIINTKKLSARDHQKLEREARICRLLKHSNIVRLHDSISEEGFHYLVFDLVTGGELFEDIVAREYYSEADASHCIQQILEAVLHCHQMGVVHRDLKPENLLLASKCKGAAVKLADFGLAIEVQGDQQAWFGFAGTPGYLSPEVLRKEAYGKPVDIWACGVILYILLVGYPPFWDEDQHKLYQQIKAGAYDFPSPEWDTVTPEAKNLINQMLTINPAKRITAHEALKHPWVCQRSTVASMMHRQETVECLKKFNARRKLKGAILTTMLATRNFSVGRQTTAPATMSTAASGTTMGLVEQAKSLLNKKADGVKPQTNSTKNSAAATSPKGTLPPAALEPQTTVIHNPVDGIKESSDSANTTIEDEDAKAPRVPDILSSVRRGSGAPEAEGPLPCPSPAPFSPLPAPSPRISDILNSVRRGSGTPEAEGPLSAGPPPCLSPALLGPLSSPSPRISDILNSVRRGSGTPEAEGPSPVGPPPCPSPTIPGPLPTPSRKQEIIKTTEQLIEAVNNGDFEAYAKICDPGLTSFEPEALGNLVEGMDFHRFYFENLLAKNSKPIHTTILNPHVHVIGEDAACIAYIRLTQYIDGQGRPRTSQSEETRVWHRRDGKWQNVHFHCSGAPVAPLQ
Chain of Serine/threonine-protein kinase N2 (Q16513 whole entry, looked up): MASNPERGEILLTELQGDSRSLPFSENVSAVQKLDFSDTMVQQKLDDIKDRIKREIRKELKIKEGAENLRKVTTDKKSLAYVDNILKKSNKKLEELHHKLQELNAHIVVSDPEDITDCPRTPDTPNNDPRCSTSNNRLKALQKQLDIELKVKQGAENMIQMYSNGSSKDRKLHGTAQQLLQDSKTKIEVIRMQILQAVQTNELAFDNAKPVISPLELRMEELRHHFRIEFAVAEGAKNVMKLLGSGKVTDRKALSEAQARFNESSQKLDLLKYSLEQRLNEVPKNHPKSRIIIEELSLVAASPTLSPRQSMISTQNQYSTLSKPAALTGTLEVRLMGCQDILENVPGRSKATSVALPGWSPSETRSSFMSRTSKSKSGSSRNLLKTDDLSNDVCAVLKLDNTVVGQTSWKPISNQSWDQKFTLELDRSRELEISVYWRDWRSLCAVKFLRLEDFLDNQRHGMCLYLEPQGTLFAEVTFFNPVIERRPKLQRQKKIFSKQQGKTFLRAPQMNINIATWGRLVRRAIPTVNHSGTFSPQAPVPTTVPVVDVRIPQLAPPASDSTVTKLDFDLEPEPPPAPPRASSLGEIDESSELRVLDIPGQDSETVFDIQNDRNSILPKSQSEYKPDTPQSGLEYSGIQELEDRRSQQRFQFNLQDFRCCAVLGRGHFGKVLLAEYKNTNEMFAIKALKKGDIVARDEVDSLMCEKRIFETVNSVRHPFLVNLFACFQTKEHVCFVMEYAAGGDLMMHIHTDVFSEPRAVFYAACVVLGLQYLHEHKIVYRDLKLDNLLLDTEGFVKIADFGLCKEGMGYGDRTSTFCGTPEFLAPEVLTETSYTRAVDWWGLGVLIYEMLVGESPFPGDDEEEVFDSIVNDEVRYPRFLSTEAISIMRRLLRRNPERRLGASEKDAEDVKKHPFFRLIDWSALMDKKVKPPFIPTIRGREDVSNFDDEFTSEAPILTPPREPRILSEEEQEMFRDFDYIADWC

In turn, `N#Cc1cccc(-c2c[nH]c3ncnc(N4CCOCC4)c23)c1` returned a % of control in assay [1] of 71%.
As to `O=C(NOC[C@H](O)CO)c1ccc(F)c(F)c1Nc1ccc(I)cc1F`, the % of control in assay [2] is 100%.
`CC[C@@H]1[C@H](F)C(=O)N[C@@H]1COc1nccc2cc(C(N)=O)c(OC)cc12` [ZIMLOVISERTIB] showed a % of inhibition in assay [3] of 6.7%.
`CN(C)C/C=C/C(=O)Nc1ccc(C(=O)N2CCCC(Nc3ncc(Cl)c(-c4c[nH]c5ccccc45)n3)C2)cc1` (stereo unspecified) displayed a % of control in assay [4] of 95%.
Regarding `O[C@H]1CC[C@H](Nc2ncc3nc(Nc4c(F)cc(F)cc4F)n([C@H]4CCOC4)c3n2)CC1`, the % of control in assay [5] worked out at 97%.
As to `CC(C)(O)[C@H](F)CN1Cc2cc(NC(=O)c3cnn4cccnc34)c(N3CCOCC3)cc2C1=O`, the dTM in assay [6] was determined as 5.2 K.
